{
  "source": "patent US12522587B2",
  "about": "“Cancer treatments targeting cancer stem cells” (Remedy Plan, Inc., priority 2018, dated 2026)",
  "experiment_in_all_cases": "Growth inhibition of cancer cell lines",
  "format_in_all_cases": "cell-based",
  "key": {"[1]": {"tested_on": "A498", "conditions": "Homo sapiens; A498, kidney carcinoma; 50% inhibition of growth", "description": "(§1) We tested the ability of compound I-1 to inhibit the growth of 12 additional cell lines, derived from a variety of different types of human cancer."}, "[2]": {"tested_on": "Colo205", "conditions": "Homo sapiens, COLO 205; Colo205, Dukes' type D, colorectal adenocarcinoma; 50% inhibition of growth", "description": "as §1"}, "[3]": {"tested_on": "DLD-1", "conditions": "Homo sapiens; DLD-1, Dukes' type C, colorectal adenocarcinoma; 50% inhibition of growth", "description": "as §1"}, "[4]": {"tested_on": "GIST T1", "conditions": "Homo sapiens, GISTT1; GIST T1, gastrointestinal stromal tumor; 50% inhibition of growth", "description": "as §1"}, "[5]": {"tested_on": "IGROV-1", "conditions": "Homo sapiens; IGROV-1, ovarian adenocarcinoma; 50% inhibition of growth", "description": "as §1"}, "[6]": {"tested_on": "MiaPaca-2", "conditions": "Homo sapiens, MIA PaCa-2; MiaPaca-2, pancreatic carcinoma; 50% inhibition of growth", "description": "as §1"}, "[7]": {"tested_on": "RL", "conditions": "Homo sapiens, non-Hodgkin's lymphoma, 50% inhibition of growth", "description": "as §1"}},
  "data": [
    {"smiles": "CCC(=O)N1CCc2cc(-c3ccc(C(=O)NCc4cccnc4)cc3)ccc21", "note": "[Compound I-1]", "values": [
      {"measurement": "IC50", "setting": "[1]", "result": "> 10", "unit": "µM"},
      {"measurement": "IC50", "setting": "[2]", "result": "> 10", "unit": "µM"},
      {"measurement": "IC50", "setting": "[3]", "result": "> 10", "unit": "µM"},
      {"measurement": "IC50", "setting": "[4]", "result": 0.98, "unit": "µM"},
      {"measurement": "IC50", "setting": "[5]", "result": 4.54, "unit": "µM"},
      {"measurement": "IC50", "setting": "[6]", "result": 3.38, "unit": "µM"},
      {"measurement": "IC50", "setting": "[7]", "result": 0.13, "unit": "µM"}
    ]}
  ]
}
